Key:
[1] = test system: Venturia inaequalis; assay: Control test of apple scab disease (sprayed young apple seedlings); format: in vivo; conditions: 125 ppm by mass spray, 12 to 14 days after inoculation
[2] = test system: Erysiphe graminis f.sp.tritici; assay: Control test of wheat powdery mildew disease (sprayed young wheat seedlings); format: in vivo; conditions: Blumeria graminis, 144 h, 125 ppm by mass spray, six days after inoculation
[3] = test system: Fusarium graminearum; assay: microbe, parasite or virus in culture; format: cell-based; conditions: 96 h, read-out: growth inhibition ratio
[4] = test system: Botrytis cinerea; assay: Control test of cucumber gray mold (sprayed young cucumber seedlings); format: in vivo; conditions: 96 h, four days after inoculation; for pest or weed control at 25 ppm: 25 ppm by mass spray; for pest or weed control at 125 ppm: 125 ppm by mass spray
Procedure: Then, the drug liquid was sprayed onto young cucumber seedlings cultivated in a nursery pot (variety “Jihai”-based, cotyledon stage), and then air-dried. […] They were left still in a moist room at 20° C. Four days after inoculation, leaves of the young cucumber seedlings were visually observed, and the control value was calculated from the lesion area ratio in accordance with the following equation. [formula]

[5] = test system: Botrytis cinerea; format: cell-based; conditions: 120 h, 25 ppm by volume, Vogel medium, 20° C., five days, dark, read-out: growth inhibition ratio
[6] = test system: Colletotrichum acutatum; assay: Fungicidal effect test against fungi causing apple anthracnose; conditions: 96 h, read-out: growth inhibition ratio
[7] = test system: Glomerella cingulata; assay: Fungicidal effect test against fungi causing grape ripe rot disease; conditions: Colletotrichum gloeosporioides, 72 h, read-out: growth inhibition ratio

COC(=O)N(Cc1ccc(C)cc1C)NC(=O)c1cc(C)nnc1Oc1cccc(C2CC2)c1F [b-6, Methyl 2-(3-(3-cyclopropyl-2-fluorophenoxy)-6-methylpyridazine-4-carbonyl)-1-(2,4-dimethylbenzyl)hydrazine-1-carboxylate]
≥ 75%: pest or weed control at 125 ppm [1] | pest or weed control at 125 ppm [2] | inhibition of growth at 25 ppm [3] | pest or weed control at 25 ppm [4] | pest or weed control at 125 ppm [4]

COC(=O)N(Cc1ccc(C)cc1C)NC(=O)c1c(Oc2cccc(C3CC3)c2F)nnc(Cl)c1C [b-15]
≥ 75%: pest or weed control at 125 ppm [1] | pest or weed control at 125 ppm [2] | inhibition of growth at 25 ppm [5] | inhibition of growth at 25 ppm [3] | inhibition of growth at 25 ppm [6] | inhibition of growth at 25 ppm [7] | pest or weed control at 25 ppm [4] | pest or weed control at 125 ppm [4]

COC(=O)N(Cc1ccc(C)cc1C)NC(=O)c1cc(C)ncc1Oc1cccc(C2CC2)c1F [b-16]
≥ 75%: pest or weed control at 125 ppm [1] | pest or weed control at 125 ppm [2] | inhibition of growth at 25 ppm [5] | inhibition of growth at 25 ppm [3] | inhibition of growth at 25 ppm [6] | inhibition of growth at 25 ppm [7] | pest or weed control at 25 ppm [4] | pest or weed control at 125 ppm [4]

Cc1ccc(CN(NC(=O)c2cc(C)nnc2Oc2cccc(C3CC3)c2F)C(=O)OC(C)(C)C)c(C)c1 [b-22]
≥ 75%: pest or weed control at 125 ppm [1] | pest or weed control at 125 ppm [2] | inhibition of growth at 25 ppm [5] | inhibition of growth at 25 ppm [3] | inhibition of growth at 25 ppm [6] | inhibition of growth at 25 ppm [7] | pest or weed control at 25 ppm [4] | pest or weed control at 125 ppm [4]

COC(=O)N(Cc1ccc(C)cc1C)NC(=O)c1cc(C)nnc1Oc1cccc(Cl)c1F [b-23, Methyl 2-(3-(3-chloro-2-fluorophenoxy)-6-methylpyridazine-4-carbonyl)-1-(2,4-dimethylbenzyl)hydrazine-1-carboxylate]
≥ 75%: pest or weed control at 125 ppm [1] | pest or weed control at 125 ppm [2] | inhibition of growth at 25 ppm [5] | inhibition of growth at 25 ppm [3] | inhibition of growth at 25 ppm [6] | inhibition of growth at 25 ppm [7] | pest or weed control at 25 ppm [4] | pest or weed control at 125 ppm [4]

COC(=O)N(Cc1ccc(C)cc1C)NC(=O)c1cc(Cl)nnc1Oc1cccc(C2CC2)c1F [b-28]
≥ 75%: pest or weed control at 125 ppm [1] | pest or weed control at 125 ppm [2] | inhibition of growth at 25 ppm [5] | inhibition of growth at 25 ppm [3] | inhibition of growth at 25 ppm [6] | inhibition of growth at 25 ppm [7] | pest or weed control at 25 ppm [4] | pest or weed control at 125 ppm [4]

COC(=O)N(Cc1ccc(C)cc1C)NC(=O)c1cc(C)ncc1Oc1cccc(Br)c1 [b-31]
≥ 75%: pest or weed control at 125 ppm [1] | pest or weed control at 125 ppm [2] | inhibition of growth at 25 ppm [5] | inhibition of growth at 25 ppm [3] | inhibition of growth at 25 ppm [6] | inhibition of growth at 25 ppm [7] | pest or weed control at 25 ppm [4] | pest or weed control at 125 ppm [4]

CCOC(=O)N(Cc1ccc(C)cc1C)NC(=O)c1cc(C)ncc1Oc1cccc(C2CC2)c1F [b-33]
≥ 75%: pest or weed control at 125 ppm [1] | pest or weed control at 125 ppm [2] | inhibition of growth at 25 ppm [5] | inhibition of growth at 25 ppm [3] | inhibition of growth at 25 ppm [6] | inhibition of growth at 25 ppm [7] | pest or weed control at 125 ppm [4]

COC(=O)N(Cc1ccc(Cl)cc1C)NC(=O)c1cc(C)nnc1Oc1cccc(C2CC2)c1F [b-34]
≥ 75%: pest or weed control at 125 ppm [1] | pest or weed control at 125 ppm [2] | inhibition of growth at 25 ppm [5] | inhibition of growth at 25 ppm [3] | inhibition of growth at 25 ppm [6] | inhibition of growth at 25 ppm [7] | pest or weed control at 25 ppm [4] | pest or weed control at 125 ppm [4]

COC(=O)N(Cc1ccc(C)cc1C)NC(=O)c1cc(C)nnc1Oc1cccc(C(F)(F)F)c1F [b-36]
≥ 75%: pest or weed control at 125 ppm [1] | pest or weed control at 125 ppm [2] | inhibition of growth at 25 ppm [5] | inhibition of growth at 25 ppm [3] | inhibition of growth at 25 ppm [6] | inhibition of growth at 25 ppm [7] | pest or weed control at 25 ppm [4] | pest or weed control at 125 ppm [4]

COC(=O)N(Cc1ccc(C)cc1C)NC(=O)c1cc(C)nnc1Oc1cccc(Br)c1F [b-38]
≥ 75%: pest or weed control at 125 ppm [1] | pest or weed control at 125 ppm [2] | inhibition of growth at 25 ppm [5] | inhibition of growth at 25 ppm [3] | inhibition of growth at 25 ppm [6] | inhibition of growth at 25 ppm [7] | pest or weed control at 25 ppm [4] | pest or weed control at 125 ppm [4]

COC(=O)N(Cc1ccc(C)cc1C)NC(=O)c1nc(C)ncc1Oc1cccc(C2CC2)c1F [b-42, Methyl 2-(5-(3-cyclopropyl-2-fluorophenoxy)-2-methylpyrimidine-4-carbonyl)-1-(2,4-dimethylbenzyl)hydrazine-1-carboxylate]
≥ 75%: pest or weed control at 125 ppm [1] | pest or weed control at 125 ppm [2] | inhibition of growth at 25 ppm [5] | inhibition of growth at 25 ppm [3] | inhibition of growth at 25 ppm [6] | inhibition of growth at 25 ppm [7] | pest or weed control at 25 ppm [4] | pest or weed control at 125 ppm [4]

CCOC(=O)N(Cc1ccc(C)cc1C)NC(=O)c1nc(C)ncc1Oc1cccc(C2CC2)c1F [b-43]
≥ 75%: pest or weed control at 125 ppm [1] | pest or weed control at 125 ppm [2] | inhibition of growth at 25 ppm [5] | inhibition of growth at 25 ppm [3] | inhibition of growth at 25 ppm [6] | inhibition of growth at 25 ppm [7] | pest or weed control at 25 ppm [4] | pest or weed control at 125 ppm [4]

COC(=O)N(Cc1ccc(Br)cc1C)NC(=O)c1cc(C)nnc1Oc1cccc(C2CC2)c1F [b-45]
≥ 75%: pest or weed control at 125 ppm [1] | pest or weed control at 125 ppm [2] | inhibition of growth at 25 ppm [5] | inhibition of growth at 25 ppm [3] | inhibition of growth at 25 ppm [6] | inhibition of growth at 25 ppm [7] | pest or weed control at 25 ppm [4] | pest or weed control at 125 ppm [4]

COC(=O)N(Cc1ccc(C)cc1Cl)NC(=O)c1cc(C)nnc1Oc1cccc(C2CC2)c1F [b-46]
≥ 75%: pest or weed control at 125 ppm [1] | pest or weed control at 125 ppm [2] | inhibition of growth at 25 ppm [5] | inhibition of growth at 25 ppm [3] | inhibition of growth at 25 ppm [6] | inhibition of growth at 25 ppm [7] | pest or weed control at 25 ppm [4] | pest or weed control at 125 ppm [4]

COC(=O)N(Cc1ccc(C)cc1C)NC(=O)c1cc(C)nnc1Oc1cccc(C(F)(F)F)c1 [b-53]
≥ 75%: pest or weed control at 125 ppm [1] | pest or weed control at 125 ppm [2] | inhibition of growth at 25 ppm [5] | inhibition of growth at 25 ppm [3] | inhibition of growth at 25 ppm [6] | inhibition of growth at 25 ppm [7] | pest or weed control at 25 ppm [4] | pest or weed control at 125 ppm [4]

COC(=O)N(Cc1ccc(C)cc1C)NC(=O)c1cc(C)nnc1Oc1cccc(Br)c1 [b-55]
≥ 75%: pest or weed control at 125 ppm [1] | pest or weed control at 125 ppm [2] | inhibition of growth at 25 ppm [5] | inhibition of growth at 25 ppm [3] | inhibition of growth at 25 ppm [6] | inhibition of growth at 25 ppm [7] | pest or weed control at 25 ppm [4] | pest or weed control at 125 ppm [4]

COC(=O)N(Cc1ccc(C)cc1C)NC(=O)c1cc(Br)ncc1Oc1cccc(C2CC2)c1F [b-67]
≥ 75%: pest or weed control at 125 ppm [1] | pest or weed control at 125 ppm [2] | inhibition of growth at 25 ppm [5] | inhibition of growth at 25 ppm [3] | inhibition of growth at 25 ppm [6] | inhibition of growth at 25 ppm [7] | pest or weed control at 25 ppm [4] | pest or weed control at 125 ppm [4]

COCOc1ccc(CN(NC(=O)c2cc(C)ncc2Oc2cccc(C3CC3)c2F)C(=O)OC)c(C)c1 [b-74]
≥ 75%: pest or weed control at 125 ppm [1] | pest or weed control at 125 ppm [2] | inhibition of growth at 25 ppm [5] | inhibition of growth at 25 ppm [3] | inhibition of growth at 25 ppm [6] | inhibition of growth at 25 ppm [7] | pest or weed control at 25 ppm [4] | pest or weed control at 125 ppm [4]

COC(=O)N(Cc1ccc(Cl)cc1Cl)NC(=O)c1cc(C)ncc1Oc1cccc(C2CC2)c1F [b-75]
≥ 75%: pest or weed control at 125 ppm [1] | pest or weed control at 125 ppm [2] | inhibition of growth at 25 ppm [5] | inhibition of growth at 25 ppm [3] | inhibition of growth at 25 ppm [6] | inhibition of growth at 25 ppm [7] | pest or weed control at 25 ppm [4] | pest or weed control at 125 ppm [4]

COC(=O)N(Cc1ccc(Br)cc1C)NC(=O)c1cc(C)ncc1Oc1cccc(C2CC2)c1F [b-76]
≥ 75%: pest or weed control at 125 ppm [1] | pest or weed control at 125 ppm [2] | inhibition of growth at 25 ppm [5] | inhibition of growth at 25 ppm [3] | inhibition of growth at 25 ppm [6] | inhibition of growth at 25 ppm [7] | pest or weed control at 25 ppm [4] | pest or weed control at 125 ppm [4]

COC(=O)N(Cc1ccc(Cl)cc1C)NC(=O)c1cc(C)ncc1Oc1cccc(C2CC2)c1F [b-77]
≥ 75%: pest or weed control at 125 ppm [1] | pest or weed control at 125 ppm [2] | inhibition of growth at 25 ppm [5] | inhibition of growth at 25 ppm [3] | inhibition of growth at 25 ppm [6] | inhibition of growth at 25 ppm [7] | pest or weed control at 25 ppm [4] | pest or weed control at 125 ppm [4]

C#Cc1cccc(Oc2nnc(C)cc2C(=O)NN(Cc2ccc(C)cc2C)C(=O)OC)c1 [b-138]
≥ 75%: pest or weed control at 125 ppm [1] | inhibition of growth at 25 ppm [5] | inhibition of growth at 25 ppm [3] | inhibition of growth at 25 ppm [6] | inhibition of growth at 25 ppm [7] | pest or weed control at 25 ppm [4] | pest or weed control at 125 ppm [4]

— patent US20260198493A1, “HYDRAZIDE COMPOUND AND AGRICULTURAL/HORTICULTURAL FUNGICIDE” (Nippon Soda Co., Ltd., priority 2022, published 2026)
